Data published in the supplement of paper PMC11208160.

Test: recombinant UMI read abundance after kanamycin selection (control-corrected) (log10(CPM+1)); higher = more efficient recombination; extreme values may be limits of the assay; sequences stand for … in AGTGCAGAGAAAATCGGCCAGTTTTCTCTGCCTGCAGTCCGCATGCCGTGGGACCCCTTGGGTTCTAACCTGTTGCCTAGATTTATGCAGCGGACTGCCTTTCTCCCAAAGTGATAAACCGG…AGGTTGGTTTCACT; site = the 11-nt donor
Outline: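 In a pooled Escherichia coli screen for the IS621 bridge recombinase, donor and donor-binding-loop pairs were each placed with a 12-nt UMI on a plasmid bearing a promoterless kanamycin gene. This library was co-electroporated with a target plasmid encoding a fixed target and T7-inducible recombinase, and cells were plated either on IPTG (0.07 mM) plus kanamycin or without selection, in two replicates each. Recombinant UMIs were PCR-amplified across the donor–target junction and sequenced, and counts were converted to CPM, averaged over replicates, scaled by control-derived factors and reported as log10(CPM+1).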
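Note: IS621 bridge recombinase in Escherichia coli cells against a fixed T5 target plasmid.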

“TGGCCTTCATGGACCGGTTTTCCCGGTAATCCGTATTTGGT (site TTGCCTTCTAC)” and “TGGCTGCCATGGACCGGTTTTCCCGGTAATCCGTATTTGGT (site TGGCTGCCTAC)” are within 0.2 log units of each other in “recombinant UMI read abundance (log10)” value: 0.00662 for the first, 0.0264 for the second.

“TGGGAGTCATGGACCGGTTTTCCCGGTAATCCGTATTTGCC (site AGGGAGTCTGG)” and “TGGGAGTCATGGACCGGTTTTCCCGGTAATCCGTATTTGCC (site CGGGAGTCTGG)” are the same in “recombinant UMI read abundance (log10)” value: 0 for the first, 0 for the second.

Going from “TGGGAGTCATGGACCGGTTTTCCCGGTAATCCGTATTTGCC (site GGGGAGTCTGG)” to “TGGGAGTCATGGACCGGTTTTCCCGGTAATCCGTATTTGCC (site TGGGAGTCTGG)”, the “recombinant UMI read abundance (log10)” value rises from 0.0303 to 2.34.

“TGGGGACCATGGACCGGTTTTCCCGGTAATCCGTATTTGCG (site TGGGGACCTCG)” and “TGGGGTACATGGACCGGTTTTCCCGGTAATCCGTATTTGGG (site TGGGGTACTCC)” are within 0.2 log units of each other in “recombinant UMI read abundance (log10)” value: 0.00873 for the first, 0.0151 for the second.

First: TGGGTACCATGGACCGGTTTTCCCGGTAATCCGTATTTGTT (site TGGGTACCTAA)
Second: TGGGTATCATGGACCGGTTTTCCCGGTAATCCGTATTTGCA (site TGGGTATCTTG)
The “recombinant UMI read abundance (log10)” value of the first is lower: 0.0105 for the first, 1.83 for the second.

“TGGGTCCCATGGACCGGTTTTCCCGGTAATCCGTATTTGGT (site TGGGTCCCTAC)” and “TGGTAGGCATGGACCGGTTTTCCCGGTAATCCGTATTTGGT (site TGATAGGCTAC)” are within 0.2 log units of each other in “recombinant UMI read abundance (log10)” value: 0.00844 for the first, 0.0183 for the second.

Compared with “TGGTAGGCATGGACCGGTTTTCCCGGTAATCCGTATTTGGT (site TGCTAGGCTAC)”, “TGGTAGGCATGGACCGGTTTTCCCGGTAATCCGTATTTGGT (site TGGTAGGCTAC)” is higher in “recombinant UMI read abundance (log10)” value: 0.00286 for the first, 0.848 for the second.

“TGGTAGGCATGGACCGGTTTTCCCGGTAATCCGTATTTGGT (site TGTTAGGCTAC)” and “TGGTGATCATGGACCGGTTTTCCCGGTAATCCGTATTTGGG (site TGGTGATCTCC)” are within 0.2 log units of each other in “recombinant UMI read abundance (log10)” value: 0.307 for the first, 0.238 for the second.

First: TGGTGGACATGGACCGGTTTTCCCGGTAATCCGTATTTGTT (site TGGTGGACTAA)
Second: TGGTTATCATGGACCGGTTTTCCCGGTAATCCGTATTTGGT (site TGGTTATCTAC)
The “recombinant UMI read abundance (log10)” value of the first is lower: 0.734 for the first, 1.78 for the second.

“TGGTTCGCATGGACCGGTTTTCCCGGTAATCCGTATTTGGA (site TGGTTCGCTTC)” and “TGGTTTCCATGGACCGGTTTTCCCGGTAATCCGTATTTGCA (site TGGTTTCCTTG)” are within 0.2 log units of each other in “recombinant UMI read abundance (log10)” value: 0.00761 for the first, 0 for the second.

Going from “TGTAAGACATGGACCGGTTTTCCCGGTAATCCGTATTTGCG (site TGTAAGACTCG)” to “TGTAAGCCATGGACCGGTTTTCCCGGTAATCCGTATTTGAC (site TGTAAGCCTGT)”, the “recombinant UMI read abundance (log10)” value falls from 0.934 to 0.

“TGTACACCATGGACCGGTTTTCCCGGTAATCCGTATTTGCC (site TGTACACCTGA)” and “TGTACACCATGGACCGGTTTTCCCGGTAATCCGTATTTGCC (site TGTACACCTGC)” are the same in “recombinant UMI read abundance (log10)” value: 0 for the first, 0 for the second.

“TGTACACCATGGACCGGTTTTCCCGGTAATCCGTATTTGCC (site TGTACACCTGG)” and “TGTACACCATGGACCGGTTTTCCCGGTAATCCGTATTTGCC (site TGTACACCTGT)” are the same in “recombinant UMI read abundance (log10)” value: 0 for the first, 0 for the second.

First: TGTACAGCATGGACCGGTTTTCCCGGTAATCCGTATTTGAA (site TGTACAGCTTT)
Second: TGTACCACATGGACCGGTTTTCCCGGTAATCCGTATTTGTA (site TGTACCACTTA)
The “recombinant UMI read abundance (log10)” value of the first is higher: 0.369 for the first, 0.131 for the second.

“TGTAGACCATGGACCGGTTTTCCCGGTAATCCGTATTTGAC (site TGTAAACCTGT)” and “TGTAGACCATGGACCGGTTTTCCCGGTAATCCGTATTTGAC (site TGTACACCTGT)” are the same in “recombinant UMI read abundance (log10)” value: 0 for the first, 0 for the second.

“TGTAGACCATGGACCGGTTTTCCCGGTAATCCGTATTTGAC (site TGTAGACCTGT)” and “TGTAGACCATGGACCGGTTTTCCCGGTAATCCGTATTTGAC (site TGTATACCTGT)” are the same in “recombinant UMI read abundance (log10)” value: 0 for the first, 0 for the second.

“TGTAGGTCATGGACCGGTTTTCCCGGTAATCCGTATTTGAA (site TGTAGGTCTTT)” and “TGTAGGTCATGGACCGGTTTTCCCGGTAATCCGTATTTGGT (site TGTAGGTCTAC)” are within 0.2 log units of each other in “recombinant UMI read abundance (log10)” value: 0.238 for the first, 0.355 for the second.

“TGTATACCATGGACCGGTTTTCCCGGTAATCCGTATTTGAC (site TGTAAACCTGT)” and “TGTATACCATGGACCGGTTTTCCCGGTAATCCGTATTTGAC (site TGTACACCTGT)” are the same in “recombinant UMI read abundance (log10)” value: 0 for the first, 0 for the second.

“TGTATACCATGGACCGGTTTTCCCGGTAATCCGTATTTGAC (site TGTAGACCTGT)” and “TGTATACCATGGACCGGTTTTCCCGGTAATCCGTATTTGAC (site TGTATACCTGT)” are the same in “recombinant UMI read abundance (log10)” value: 0 for the first, 0 for the second.

“TGTCAGCCATGGACCGGTTTTCCCGGTAATCCGTATTTGGC (site TGTCAGCCTGC)” and “TGTCCACCATGGACCGGTTTTCCCGGTAATCCGTATTTGAC (site TGTACACCTGT)” are within 0.2 log units of each other in “recombinant UMI read abundance (log10)” value: 0.0152 for the first, 0 for the second.

“TGTCCACCATGGACCGGTTTTCCCGGTAATCCGTATTTGAC (site TGTCCACCTGT)” and “TGTCCACCATGGACCGGTTTTCCCGGTAATCCGTATTTGAC (site TGTGCACCTGT)” are the same in “recombinant UMI read abundance (log10)” value: 0 for the first, 0 for the second.

“TGTCCACCATGGACCGGTTTTCCCGGTAATCCGTATTTGAC (site TGTTCACCTGT)” and “TGTCCAGCATGGACCGGTTTTCCCGGTAATCCGTATTTGTG (site TGTCCAGCTCA)” are within 0.2 log units of each other in “recombinant UMI read abundance (log10)” value: 0 for the first, 0.0483 for the second.

First: TGTCCTACATGGACCGGTTTTCCCGGTAATCCGTATTTGTG (site TGTCCTACTCA)
Second: TGTCGTCCATGGACCGGTTTTCCCGGTAATCCGTATTTGAG (site TGTCGTCCTCT)
The “recombinant UMI read abundance (log10)” value of the first is higher: 0.266 for the first, 0.0062 for the second.

Compared with “TGTGACGCATGGACCGGTTTTCCCGGTAATCCGTATTTGTG (site TGTGACGCTCA)”, “TGTGATGCATGGACCGGTTTTCCCGGTAATCCGTATTTGAC (site TGTGATGCTGT)” is higher in “recombinant UMI read abundance (log10)” value: 0.239 for the first, 1.65 for the second.

Going from “TGTGCTGCATGGACCGGTTTTCCCGGTAATCCGTATTTGTA (site TGTGCTGCTTA)” to “TGTGGCTCATGGACCGGTTTTCCCGGTAATCCGTATTTGCT (site TGTGGCTCTAG)”, the “recombinant UMI read abundance (log10)” value rises from 0.0197 to 1.33.

“TGTGTGACATGGACCGGTTTTCCCGGTAATCCGTATTTGTC (site TGTGTGACTGA)” and “TGTTAACCATGGACCGGTTTTCCCGGTAATCCGTATTTGCT (site TGTTAACCTAG)” are the same in “recombinant UMI read abundance (log10)” value: 0 for the first, 0 for the second.

“TGTTCACCATGGACCGGTTTTCCCGGTAATCCGTATTTGTA (site TGTTCACCTTA)” and “TGTTCACCATGGACCGGTTTTCCCGGTAATCCGTATTTGTA (site TGTTCCCCTTA)” are within 0.2 log units of each other in “recombinant UMI read abundance (log10)” value: 0.00651 for the first, 0.104 for the second.

“TGTTCACCATGGACCGGTTTTCCCGGTAATCCGTATTTGTA (site TGTTCGCCTTA)” and “TGTTCACCATGGACCGGTTTTCCCGGTAATCCGTATTTGTA (site TGTTCTCCTTA)” are within 0.2 log units of each other in “recombinant UMI read abundance (log10)” value: 0.00766 for the first, 0.00688 for the second.

In the case of “TGTTCCCCATGGACCGGTTTTCCCGGTAATCCGTATTTGAA (site TGTTCCCCTTA)”, the “recombinant UMI read abundance (log10)” value is reported as 0.0134.
